Holding throughout (type): in vitro ADME
The nature of data set [1]: Stability in cynomolgus monkey fecal homogenate. As to conditions: 20% fecal homogenate (supernatant), pH 6.8, 20% cynomolgus monkey fecal homogenate, anaerobic, 37° C., read-out: t½: Monkey Feces anaerobic (converted). The protocol:
(§1) Centrifuged the homogenate at 2800×g for 15 min. The supernatant is taken out and used for incubations. […] The final test compound concentration was 20 μM.

Data set [2] can be described thus: Stability in simulated intestinal fluid (SIF). As to conditions: simulated intestinal fluid with pancreatin, pH 6.8, 37° C., matrix is 100 fold dilution of standard SIF concentration; for SIF t½: 20 μM; for half-life at 20 μM: read-out: SIF t½ (converted).
Data set [3] in a line: Stability in rat plasma. Conditions: both sexes, SD rat plasma, EDTA, 37° C., read-out: t½: Rat Plasma EDTA (converted).
Description: Peptides of interest (20 μM) were incubated with pre-warmed rat plasma (SD rat, mixed gender pooled, EDTA, filtered through 0.22 μm, BioreclamationIVT) at 37° C. […] Quenched samples were stored at 4° C. until the end of the experiment and centrifuged at 4,000 rpm for 10 minutes. The supernatant were diluted 1:1 with deionized water and analyzed using LC-MS. Percentage remaining at each time point was calculated based on the peak area ratio (analyte over internal standard) relative to the initial level at time zero. Half-lives were calculated by fitting to a first-order exponential decay equation using GraphPad.
Data set [4] can be described thus: Stability in human fecal homogenate. Conditions: 20% fecal homogenate (supernatant), pH 6.8, 20% human fecal homogenate, anaerobic, 37° C., read-out: t½: Human Feces anaerobic (converted). The protocol:
as §1

Bridge positions count the residues as written; N and C are the ends. Square brackets hold non-standard residues; d marks the D form. Peptide text beside a SMILES is read from it. Trp(7-Me) = Cc1cccc2c(C[C@H](N)C(=O)O)c[nH]c12; 2Nal = N[C@@H](Cc1ccc2ccccc2c1)C(=O)O; AEF = NCCOc1ccc(C[C@H](N)C(=O)O)cc1; Cit = NC(=O)NCCC[C@H](N)C(=O)O; Pen = CC(C)(S)[C@H](N)C(=O)O; αMeK = C[C@](N)(CCCCN)C(=O)O; Aib = CC(C)(N)C(=O)O Where only a bound is given, the exact number is not on record here.

For `CC(=O)NCCCC[C@H](NC(=O)[C@](C)(CCCCN)NC(=O)[C@H](Cc1ccc2ccccc2c1)NC(=O)[C@H](Cc1ccc(OCCN)cc1)NC(=O)[C@H]1NC(=O)[C@H](CCC(N)=O)NC(=O)[C@H](Cc2c[nH]c3ccc(C#N)cc23)NC(=O)[C@H]([C@@H](C)O)NC(=O)[C@H](CC(N)=O)NC(=O)[C@@H](NC(C)=O)C(C)(C)SSC1(C)C)C(=O)N[C@@H](CC(N)=O)C(=O)N[C@H](CCCCN)C(N)=O` [compound 296], the half-life at 20 μM in data set [1], in data set [3] and in data set [4] was more than 24 h each time. For the same molecule, the “SIF t½” value in data set [2] was 24 h.
Regarding `COc1cccc2c(C[C@@H]3NC(=O)[C@H]([C@@H](C)O)NC(=O)[C@H](CC(N)=O)NC(=O)[C@@H](NC(C)=O)C(C)(C)SSC(C)(C)[C@@H](C(=O)N[C@@H](Cc4ccc(OCCN)cc4)C(=O)N[C@@H](Cc4ccc5ccccc5c4)C(=O)N[C@@](C)(CCCCN)C(=O)N[C@@H](CCCCNC(C)=O)C(=O)N[C@@H](CC(N)=O)C(=O)N[C@H](CCCCN)C(N)=O)NC(=O)[C@H](CCC(N)=O)NC3=O)c[nH]c12` [compound 297], the half-life at 20 μM in data set [1], in data set [3] and in data set [4] was more than 24 h in each case. For the same molecule, the “SIF t½” value in data set [2] was 24 h.
Turning to `COc1cccc2c(C[C@@H]3NC(=O)[C@H]([C@@H](C)O)NC(=O)[C@H](CC(N)=O)NC(=O)[C@@H](NC(C)=O)C(C)(C)SSC(C)(C)[C@@H](C(=O)N[C@@H](Cc4ccc(OCCN)cc4)C(=O)N[C@@H](Cc4ccc5ccccc5c4)C(=O)N[C@@](C)(CCCCN)C(=O)N[C@@H](CCCCNC(C)=O)C(=O)N[C@@H](CC(N)=O)C(=O)N[C@H](CCCCN)C(N)=O)NC(=O)[C@H](CCCCNC(C)=O)NC3=O)c[nH]c12` [compound 299], the half-life at 20 μM in data set [1], in data set [3] and in data set [4] was more than 24 h throughout. For the same molecule, the “SIF t½” value in data set [2] was 24 h.
As for `CC(=O)NCCCC[C@H](NC(=O)[C@](C)(CCCCN)NC(=O)[C@H](Cc1ccc2ccccc2c1)NC(=O)[C@H](Cc1ccc(OCCN)cc1)NC(=O)[C@H]1NC(=O)[C@H](CCCCNC(=O)[C@H](C)N)NC(=O)[C@H](Cc2c[nH]c3c(C)cccc23)NC(=O)[C@H]([C@@H](C)O)NC(=O)[C@H](CC(N)=O)NC(=O)[C@@H](NC(C)=O)C(C)(C)SSC1(C)C)C(=O)N[C@@H](CC(N)=O)C(=O)N[C@H](CC(C)C)C(N)=O` [compound 314], the half-life at 20 μM in data set [1], in data set [3] and in data set [4] was more than 24 h each time. Also, in data set [2], the “SIF t½” value is 24 h.
Turning to `CC(=O)NCCCC[C@H](NC(=O)[C@](C)(CCCCN)NC(=O)[C@H](Cc1ccc2ccccc2c1)NC(=O)[C@H](Cc1ccc(OCCN)cc1)NC(=O)[C@H]1NC(=O)[C@H](CCCCNC(=O)CC(C)C)NC(=O)[C@H](Cc2c[nH]c3c(C)cccc23)NC(=O)[C@H]([C@@H](C)O)NC(=O)[C@H](CC(N)=O)NC(=O)[C@@H](NC(C)=O)C(C)(C)SSC1(C)C)C(=O)N[C@@H](CC(N)=O)C(=O)N[C@H](CC(C)C)C(N)=O` [compound 315], the half-life at 20 μM in data set [1], in data set [3] and in data set [4] was more than 24 h each time. For the same molecule, the “SIF t½” value in data set [2] is 24 h.
Take `CCCCCCCC(=O)NCCCC[C@@H]1NC(=O)[C@H](Cc2c[nH]c3c(C)cccc23)NC(=O)[C@H]([C@@H](C)O)NC(=O)[C@H](CC(N)=O)NC(=O)[C@@H](NC(C)=O)C(C)(C)SSC(C)(C)[C@@H](C(=O)N[C@@H](Cc2ccc(OCCN)cc2)C(=O)N[C@@H](Cc2ccc3ccccc3c2)C(=O)N[C@@](C)(CCCCN)C(=O)N[C@@H](CCCCNC(C)=O)C(=O)N[C@@H](CC(N)=O)C(=O)N[C@H](CC(C)C)C(N)=O)NC1=O` [compound 317]: the half-life at 20 μM in data set [1], in data set [3] and in data set [4] was more than 24 h each time.
With `CC(=O)NCCCC[C@H](NC(=O)[C@](C)(CCCCN)NC(=O)[C@H](Cc1ccc2ccccc2c1)NC(=O)[C@H](Cc1ccc(OCCN)cc1)NC(=O)[C@H]1NC(=O)[C@H](CCCCNC(=O)CC(F)(F)F)NC(=O)[C@H](Cc2c[nH]c3c(C)cccc23)NC(=O)[C@H]([C@@H](C)O)NC(=O)[C@H](CC(N)=O)NC(=O)[C@@H](NC(C)=O)C(C)(C)SSC1(C)C)C(=O)N[C@@H](CC(N)=O)C(=O)N[C@H](CC(C)C)C(N)=O` [compound 319], the half-life at 20 μM in data set [1], in data set [3] and in data set [4] was more than 24 h each time.
With `CC(=O)NCCCC[C@H](NC(=O)[C@](C)(CCCCN)NC(=O)[C@H](Cc1ccc2ccccc2c1)NC(=O)[C@H](Cc1ccc(OCCN)cc1)NC(=O)[C@H]1NC(=O)[C@H](CCCCNC(=O)CN)NC(=O)[C@H](Cc2c[nH]c3c(C)cccc23)NC(=O)[C@H]([C@@H](C)O)NC(=O)[C@H](CC(N)=O)NC(=O)[C@@H](NC(C)=O)C(C)(C)SSC1(C)C)C(=O)N[C@@H](CC(N)=O)C(=O)N[C@H](CC(C)C)C(N)=O` [compound 320], the half-life at 20 μM in data set [1] is 15 h; in data set [2], 21 h; in data set [3], more than 24 h; in data set [4], more than 24 h.
As for `CC(=O)NCCCC[C@H](NC(=O)[C@](C)(CCCCN)NC(=O)[C@H](Cc1ccc2ccccc2c1)NC(=O)[C@H](Cc1ccc(OCCN)cc1)NC(=O)[C@H]1NC(=O)[C@H](CCCCNC(=O)CCN)NC(=O)[C@H](Cc2c[nH]c3c(C)cccc23)NC(=O)[C@H]([C@@H](C)O)NC(=O)[C@H](CC(N)=O)NC(=O)[C@@H](NC(C)=O)C(C)(C)SSC1(C)C)C(=O)N[C@@H](CC(N)=O)C(=O)N[C@H](CC(C)C)C(N)=O` [compound 321], the half-life at 20 μM in data set [1], in data set [3] and in data set [4] was more than 24 h each time. Moreover, the “SIF t½” value in data set [2] is 24 h.
Turning to `CC(=O)NCCCC[C@@H]1NC(=O)[C@H](Cc2c[nH]c3c(C)cccc23)NC(=O)[C@H]([C@@H](C)O)NC(=O)[C@@H](CC(N)=O)NC(=O)[C@@H](NC(C)=O)C(C)(C)SSC(C)(C)[C@@H](C(=O)N[C@@H](Cc2ccc(OCCN)cc2)C(=O)N[C@@H](Cc2ccc3ccccc3c2)C(=O)N[C@@](C)(CCCCN)C(=O)N[C@@H](CCCCNC(C)=O)C(=O)N[C@@H](CC(N)=O)C(=O)N[C@H](CC(C)C)C(N)=O)NC1=O` [compound 338], the half-life at 20 μM in data set [1], in data set [3] and in data set [4] was more than 24 h throughout.
Regarding `CC(=O)NCCCC[C@H](NC(=O)[C@](C)(CCCCN)NC(=O)[C@H](Cc1ccc2ccccc2c1)NC(=O)[C@H](Cc1ccc(OCCN)cc1)NC(=O)[C@H]1NC(=O)[C@H](CCCNC(N)=O)NC(=O)[C@H](Cc2c[nH]c3c(C)cccc23)NC(=O)[C@H]([C@@H](C)O)NC(=O)[C@H](CC(N)=O)NC(=O)[C@@H](NC(C)=O)C(C)(C)SSC1(C)C)C(=O)N[C@@H](CC(N)=O)C(=O)NC(C)(C)C(=O)N[C@@H](CCCNC(=N)N)C(N)=O` [compound 343] (Ac-[Pen]NT[Trp(7-Me)][Cit][Pen][AEF][2Nal][αMeK]K(Ac)N[Aib]R-NH2; disulfide 1-6), the half-life at 20 μM in data set [2] was 13 h; in data set [3], more than 24 h; in data set [4], 12 h.
